This note sets out measurements from publication PMC11927960, “Multiparameter ranking of carbazoles for anti-trypanosome lead discovery” (Frontiers in drug discovery, 2024).

The term solubility denotes the dissolved amount per volume that the medium holds. High values mean a readily soluble substance, low ones a poorly soluble substance. Broadly, the microsomal CLint is the rate of metabolic loss divided by the concentration. Low values mean slow turnover, high ones rapid turnover. Usually Papp stands for the rate of passage across a membrane or cell layer, normalised by area and donor concentration. A higher Papp goes with ready permeation. Usually Tmax stands for the time at which the peak concentration occurs. Broadly, the half-life is the time in which the quantity being followed falls by half. Higher therefore signals slow loss.

Data set [1] is described as follows: Thermodynamic aqueous solubility (pH 7.4). In kind it is physicochemical. Particulars: aqueous buffer, thermodynamic from solid, phosphate buffer pH 7.4, 25 °C, 20–24 h. Here is the method:
Thermodynamic aqueous solubility (pH 7.4).
Various amounts of compounds in powdered form were added to phosphate buffer (0.1 M, pH 7.4). Suspensions were kept on a shaker at 25 °C for 20–24 h. After centrifugation, compounds in the supernatant were quantified using LC-MS/MS.

Data set [2] is described as follows: Human liver microsome intrinsic clearance (HLM Clint). In kind it is in vitro ADME. Particulars: human liver microsomes, 37 °C. The method, then:
Intrinsic metabolic clearance.
The test compound was added to a final concentration of 1 μM, and the residual concentrations were tracked with LC-MS/MS at defined time points.
(Liver microsomes are a subcellular fraction often used to study metabolism.)

The nature of data set [3]: Caco-2 bidirectional permeability assay. Type of data set: in vitro ADME. Particulars: human. Here is the method:
Caco-2 bidirectional permeability assay.
Caco-2 bidirectional permeability assay was performed at Absorption Systems (Exton, Pennsylvania). Briefly, monolayers of Caco-2 cells (clone C2BBe1) were grown to confluence on collagen-coated, microporous membranes in 12-well plates. Permeability assay buffer (Hanks’ balanced salt solution containing 10 mM HEPES and 15 mM glucose, pH 7.4) in the receiver chamber contained 1% bovine serum albumin. Compounds dissolved in assay buffer (5 μM) were added either on the apical (A) or the basolateral side (B) and incubated at 37 °C with 5% CO2 in a humidified incubator. Samples were collected from donor and receiver chambers at 120 min. Each determination was performed in duplicate. The flux of lucifer yellow dye was measured post-experimentally for each monolayer to ensure that no monolayers were damaged during the flux period with compounds. Drug amounts were determined by LC-MS/MS. Apparent permeability (Papp) and percent recovery were determined as per [Hubatsch et al. (2007)]. The efflux ratio was calculated as Papp (B-to-A)/Papp (A-to-B).
Background: Passage across Caco-2 layers is used to estimate intestinal permeability.

A short description of data set [4]: Plasma pharmacokinetics after single oral dose. In kind it is in vivo, Swiss Webster mice. Particulars: Swiss Webster, mouse; for AUC(0-t): female mice values of Table 3, quoted in μM, read-out: AUC0–6h. Here is the method:
The plasma concentration and tissue distribution of drugs were determined by Absorption Systems. […] Blood and brain samples were obtained at 1, 2, 4, and 6 h post-dosing, and plasma and brain concentrations of the drug were determined using LC-MS/MS. Stock standards for calibration were prepared in a matrix comprising equal volumes of water and mouse blood containing K2-EDTA as an anticoagulant. Working solutions were prepared in 50:50 acetonitrile–water and added to the matrix to final concentrations of 1,000, 500, 100, 50.0, 10.0, 5.00, 1.00, and 0.500 ng/mL for all compounds. Pharmacokinetic parameters were determined using Phoenix WinNonlin (v8.0) software with sparse sampling. Maximum plasma concentration (Cmax) and the time to reach maximum plasma concentration (tmax) were determined from the four data points. The area under the time concentration curve (AUClast) was calculated using the linear trapezoidal rule with calculation to a 6-h data point. Plasma half-life (t1/2) was calculated from 0.693/slope of the terminal elimination phase. Samples below the limit of detection (0.500 ng/mL) were treated as 0.

Data set [5] concerns endocytosis of transferrin (Tf) in Trypanosoma brucei. The experiment in a line: Endocytosis of transferrin (flow cytometry). In kind it is cell-based. To be noted: for Effect on endocytosis of Tf / Endocytosis Transferrin: DTC25; for Increase of Tf endocytosis compared to DMSO: DTC25, 6 h, not statistically significant; for Endocytosis Transferrin: Table S3. Here is the method:
(§1) Cells were washed and resuspended in serum-free medium. Trypanosomes were incubated with fluorescent endocytosis ligands transferrin (Tf) or bovine serum albumin (BSA) for 30 min (37 °C). A flow cytometer was used to detect fluorescence intensity per cell. Propidium iodide (PI) was used to stain and gate out non-viable cells. Histograms present fluorescence intensity of Tf-AF488 (A) or BSA-AF647 (B) for every cell (n > 10,000 for each cargo) in DMSO or drug-treated samples. Points on the scatter plot represent mean fluorescence intensities of Tf (C) or BSA (D) from three biological replicates (calculated with FlowJo). Bars indicate mean ± SD. Student’s t-test was used to evaluate statistical significance of differences in mean intensity of endocytosed ligand in DMSO-treated sample compared to curaxin-treated samples.
Curaxin or DMSO-treated trypanosomes (5 × 10^5/mL) were washed with serum-free HMI-9 medium (500 uL). Trypanosomes were resuspended in serum-free HMI-9 medium (100 μL) supplemented with either transferrin–[…] conjugate (50 μg, Invitrogen, Eugene, OR) or BSA–AlexaFluor647 conjugate (50 μg, Invitrogen, Eugene, OR) for 30 min at 37 °C, 5% CO2. Cells were transferred to an ice-water bath, washed with cold PBS/G at 4 °C (3,000 g for 5 min), resuspended in PBS/G (500 μL) containing propidium iodide (3 μM), and analyzed on a flow cytometer (Beckman Coulter CytoFLEX S). FlowJo software (FlowJo, LLC) was used to gate trypanosomes based on size and shape (forward and side scatter features), and fluorescence intensity of endocytosed protein was measured in viable cells (negative for propidium iodide uptake). FlowJo software was used to determine the mean fluorescence intensity of each cargo in trypanosomes (at least 10,000 events). Data from three independent biological experiments were analyzed with a two-tailed Student’s t-test with unequal variance to determine the possible statistical significance of differences in means of fluorescence intensities of endocytosed cargo.

Data set [6] deals with endocytosis of bovine serum albumin (BSA) in Trypanosoma brucei. In kind it is cell-based. To be noted: DTC25; Table S3. Here is the method:
as §1, with “Student’s t-test was used to evaluate statistical significance of differences in mean intensity of endocytosed ligand in DMSO-treated sample compared to curaxin-treated samples.” left out
Curaxin or DMSO-treated trypanosomes (5 × 10^5/mL) were washed with serum-free HMI-9 medium (500 uL). […] Cells were transferred to an ice-water bath, washed with cold PBS/G at 4 °C (3,000 g for 5 min), resuspended in PBS/G (500 μL) containing propidium iodide (3 μM), and analyzed on a flow cytometer (Beckman Coulter CytoFLEX S). FlowJo software (FlowJo, LLC) was used to gate trypanosomes based on size and shape (forward and side scatter features), and fluorescence intensity of endocytosed protein was measured in viable cells (negative for propidium iodide uptake). FlowJo software was used to determine the mean fluorescence intensity of each cargo in trypanosomes (at least 10,000 events). […]

For data set [7], the system named is Trypanosoma brucei Lister427. The experiment in a line: Recovery of trypanosome proliferation after 6-h exposure to Cmax or AUC0–6h amounts in 50% serum. Type of data set: cell-based. To be noted: for Trypanocidal or cytostatic outcome: 6-h treatment with Cmax equivalents. The method, then:
Recovery of trypanosome proliferation after a 6-h exposure to curaxins
The in vivo plasma exposure of trypanosomes to drug is expressed as area under the curve (AUC) in pharmacokinetic analysis. Theoretically, the same drug exposures in vitro and in vivo will be achieved within 6 h if the in vitro compound concentration × 6 h value was equal to in vivo AUC0–6h. […] AUC0–6h unbound is equal to the AUC0–6h × fraction of drug unbound to plasma (PFU) (Table 4).
Trypanosomes (1 × 10^5/mL) were treated with a concentration equivalent of the AUC0–6h unbound (Table 4) of each compound. After 6 h, cells were washed and resuspended (1 × 10^5 cells/mL) in drug-free medium. […] Proliferation recovery time was recorded post drug wash-off as described above.

Where [8] appears, read: Caco-2, pH 7.4, Caco-2, direction A-to-B.
[9] abbreviates: Caco-2, pH 7.4, Caco-2, direction B-to-A.
Setting [10] is: 6-h treatment with Cmax amount (CBL0137 1.85, CBL0174 1.04, CBL0187 0.72 μM), 50% serum, NR = no recovery 84 h after wash-off.

Converted amounts (≈) assume the structure as drawn. Like-named read-outs stand apart in the source and are kept apart here.

In data set [1], `CC(=O)c1cc2c3cc(C(C)=O)c(O)cc3n(CCCN(C)C)c2cc1O` [CBL0174, 1-[6-acetyl-9-[3-(dimethylamino)propyl]-2,7-dihydroxy-carbazol-3-yl]ethanone] had a solubility of 773 µM (≈ 285 µg/mL). This compound also gave a microsomal CLint at 1 μM in data set [2] of 4.89 µL/min/mg. In addition, in data set [3] (setting [8]), the Papp at 120 min, 5 μM was determined as 178 ± 3.5 nm/s and the recovery at 120 min, 5 μM was determined as 60%. In data set [3] (setting [9]), this compound had a Papp at 120 min, 5 μM of 219 ± 33.9 nm/s and a recovery at 120 min, 5 μM of 86%. Moreover, the AUC(0-t) in data set [4] turned out to be 3.14 ± 0.25 µM·h. Besides, in data set [4] (female), the Tmax is 1 h and the half-life was 3.61 h. Further, in data set [4] (male), the Tmax came out at 1 h and the half-life was 4.33 h. Moreover, in data set [5], the “Fold increase of Tf endocytosis compared to DMSO” value was 1.39, the “Effect on endocytosis of Tf” value is reported as “did not promote endocytosis of Tf”, the “Increase of Tf endocytosis compared to DMSO” value is on record as 39% and the “Endocytosis Transferrin” value is given as “Activated”. In addition, the “Endocytosis BSA affected” value in data set [6] was “No”. Besides, the Latency of proliferation in data set [7] is listed as 66 h. In data set [7] (setting [10]), this compound displayed a Latency of proliferation of 66 h. In addition, the “Trypanocidal or cytostatic outcome” value in data set [7] (50% serum) is reported as “cytostatic”.

Compound `CC(=O)c1cc2c3cc(C(C)=O)c(O)cc3n(CCNC(C)C)c2cc1O` [CBL0187, 1-[6-acetyl-2,7-dihydroxy-9-[2-(isopropylamino)ethyl]carbazol-3-yl]ethanone] registered a solubility in data set [1] of 36.3 µM (≈ 13.4 µg/mL). In data set [2], this compound displayed a microsomal CLint at 1 μM of 12.4 µL/min/mg. In data set [3] (setting [8]), this compound yielded a Papp at 120 min, 5 μM of 140 ± 19.1 nm/s and a recovery at 120 min, 5 μM of 47%. In data set [3] (setting [9]), this compound came in with a Papp at 120 min, 5 μM of 217 ± 33.9 nm/s and a recovery at 120 min, 5 μM of 64%. The AUC(0-t) in data set [4] was 2.95 ± 0.18 µM·h. Besides, in data set [4] (female), the Tmax came to 1.5 ± 0.7 h and the half-life is greater than 6 h. In addition, in data set [4] (male), the Tmax was found to be 2 h and the half-life was greater than 6 h. Besides, in data set [5], the “Fold increase of Tf endocytosis compared to DMSO” value came out at 1.31, the “Effect on endocytosis of Tf” value is reported as “had no effect on the pathway”, the “Increase of Tf endocytosis compared to DMSO” value turned out to be 30.9% and the “Endocytosis Transferrin” value was “Activated”. Further, the “Endocytosis BSA affected” value in data set [6] is recorded as “No”. In data set [7], this compound came in with a Latency of proliferation of 30 h. Besides, the Latency of proliferation in data set [7] (setting [10]) stood at 6 h. Besides, in data set [7] (6-h treatment with Cmax equivalent, 50% serum), the “Time to resumption of proliferation (before subtracting 18 h of control)” value was 24 h. Besides, in data set [7] (50% serum), the “Trypanocidal or cytostatic outcome” value is listed as “not trypanocidal”.
